Test results as given in the kinase profiling compilation of Christmann-Franck et al. (2016).
Each block holds one molecule with its values, some of them ahead of it.

Columns and labels:
Experiment in all cases: radiometric filter-binding kinase assay
[1] = target: ABL1 (human) (UniProt P00519)
[2] = target: EIF2AK3 (human) (UniProt Q9NZJ5)
[3] = target: IRAK1 (human) (UniProt P51617)
[4] = target: MAPK11 (human) (UniProt Q15759)
[5] = test system: OXSR1 (human), O95747 [T185E]
[6] = target: PAK6 (human) (UniProt Q9NQU5)
[7] = target: PRKCG (human) (UniProt P05129)
[8] = target: PTK6 (human) (UniProt Q13882)
[9] = target: STK33 (human) (UniProt Q9BYT3)
[10] = target: TEK (human) (UniProt Q02763)
[11] = target: TLK1 (human) (UniProt Q9UKI8)
[12] = target: ZAP70 (human) (UniProt P43403)
[13] = target: STK16 (human) (UniProt O75716)
Sequence of STK16 (human) (O75716 whole entry, looked up): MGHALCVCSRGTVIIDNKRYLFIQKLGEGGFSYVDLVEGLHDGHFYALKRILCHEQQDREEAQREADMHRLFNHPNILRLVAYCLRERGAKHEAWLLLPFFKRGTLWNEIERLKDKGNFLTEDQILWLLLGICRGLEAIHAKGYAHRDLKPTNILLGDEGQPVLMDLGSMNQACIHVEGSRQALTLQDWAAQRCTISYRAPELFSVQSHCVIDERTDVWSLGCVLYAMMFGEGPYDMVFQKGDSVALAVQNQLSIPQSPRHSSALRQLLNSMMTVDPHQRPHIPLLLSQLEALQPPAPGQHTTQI

Sequence of EIF2AK3 (human) (Q9NZJ5 whole entry, looked up): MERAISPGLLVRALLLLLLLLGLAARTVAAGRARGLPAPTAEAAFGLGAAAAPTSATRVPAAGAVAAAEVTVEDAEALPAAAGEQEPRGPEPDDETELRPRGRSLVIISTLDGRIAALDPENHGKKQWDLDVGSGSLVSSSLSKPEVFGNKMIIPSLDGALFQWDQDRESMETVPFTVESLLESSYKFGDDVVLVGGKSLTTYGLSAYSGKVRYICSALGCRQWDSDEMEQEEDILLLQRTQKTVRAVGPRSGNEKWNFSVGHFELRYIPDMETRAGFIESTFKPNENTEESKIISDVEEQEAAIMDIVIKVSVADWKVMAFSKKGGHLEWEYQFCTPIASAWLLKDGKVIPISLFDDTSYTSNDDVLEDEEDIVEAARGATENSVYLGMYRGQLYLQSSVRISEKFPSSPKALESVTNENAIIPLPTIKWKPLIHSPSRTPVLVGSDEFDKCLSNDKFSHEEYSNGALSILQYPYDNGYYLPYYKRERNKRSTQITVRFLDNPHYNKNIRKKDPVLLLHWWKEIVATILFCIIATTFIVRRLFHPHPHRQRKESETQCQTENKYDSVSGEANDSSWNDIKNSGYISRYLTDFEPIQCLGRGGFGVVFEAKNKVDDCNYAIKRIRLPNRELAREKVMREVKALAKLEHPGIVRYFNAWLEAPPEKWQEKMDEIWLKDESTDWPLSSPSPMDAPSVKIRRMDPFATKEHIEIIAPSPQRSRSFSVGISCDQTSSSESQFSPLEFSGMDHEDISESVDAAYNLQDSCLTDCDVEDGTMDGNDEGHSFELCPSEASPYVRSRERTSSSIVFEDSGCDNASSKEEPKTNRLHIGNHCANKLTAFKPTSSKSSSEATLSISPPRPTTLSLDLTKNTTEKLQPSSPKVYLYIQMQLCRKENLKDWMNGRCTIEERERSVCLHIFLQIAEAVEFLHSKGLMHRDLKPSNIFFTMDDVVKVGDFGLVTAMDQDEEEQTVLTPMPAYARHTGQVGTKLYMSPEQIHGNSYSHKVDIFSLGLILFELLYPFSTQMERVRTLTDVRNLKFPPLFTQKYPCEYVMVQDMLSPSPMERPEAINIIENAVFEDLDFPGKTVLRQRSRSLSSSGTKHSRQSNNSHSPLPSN
Sequence of MAPK11 (human) (Q15759 whole entry, looked up): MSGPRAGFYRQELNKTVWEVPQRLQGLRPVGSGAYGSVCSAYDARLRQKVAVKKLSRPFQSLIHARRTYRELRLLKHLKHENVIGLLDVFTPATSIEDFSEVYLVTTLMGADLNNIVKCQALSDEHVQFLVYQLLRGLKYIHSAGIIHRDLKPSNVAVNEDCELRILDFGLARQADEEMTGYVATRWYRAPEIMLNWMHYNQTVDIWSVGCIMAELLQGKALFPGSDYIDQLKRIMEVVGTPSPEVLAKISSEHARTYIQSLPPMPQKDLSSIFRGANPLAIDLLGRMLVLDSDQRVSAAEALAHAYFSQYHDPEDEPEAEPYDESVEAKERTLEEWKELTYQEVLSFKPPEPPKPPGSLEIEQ
Sequence of OXSR1 (human), O95747 [T185E] (O95747 whole entry T185E, looked up): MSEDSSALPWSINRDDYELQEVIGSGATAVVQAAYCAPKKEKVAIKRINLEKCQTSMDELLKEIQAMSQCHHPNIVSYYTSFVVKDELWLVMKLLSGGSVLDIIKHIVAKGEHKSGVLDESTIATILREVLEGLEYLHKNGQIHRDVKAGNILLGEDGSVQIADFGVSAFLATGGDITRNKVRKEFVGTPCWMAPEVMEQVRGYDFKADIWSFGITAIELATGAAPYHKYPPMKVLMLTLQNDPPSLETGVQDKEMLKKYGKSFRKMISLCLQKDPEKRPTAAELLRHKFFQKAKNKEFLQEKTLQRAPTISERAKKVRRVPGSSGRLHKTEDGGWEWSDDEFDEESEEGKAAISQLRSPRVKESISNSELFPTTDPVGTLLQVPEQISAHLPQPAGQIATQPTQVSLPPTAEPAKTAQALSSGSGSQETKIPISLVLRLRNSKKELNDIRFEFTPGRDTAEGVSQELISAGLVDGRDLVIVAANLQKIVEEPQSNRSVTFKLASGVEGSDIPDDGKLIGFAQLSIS
Sequence of PTK6 (human) (Q13882 whole entry, looked up): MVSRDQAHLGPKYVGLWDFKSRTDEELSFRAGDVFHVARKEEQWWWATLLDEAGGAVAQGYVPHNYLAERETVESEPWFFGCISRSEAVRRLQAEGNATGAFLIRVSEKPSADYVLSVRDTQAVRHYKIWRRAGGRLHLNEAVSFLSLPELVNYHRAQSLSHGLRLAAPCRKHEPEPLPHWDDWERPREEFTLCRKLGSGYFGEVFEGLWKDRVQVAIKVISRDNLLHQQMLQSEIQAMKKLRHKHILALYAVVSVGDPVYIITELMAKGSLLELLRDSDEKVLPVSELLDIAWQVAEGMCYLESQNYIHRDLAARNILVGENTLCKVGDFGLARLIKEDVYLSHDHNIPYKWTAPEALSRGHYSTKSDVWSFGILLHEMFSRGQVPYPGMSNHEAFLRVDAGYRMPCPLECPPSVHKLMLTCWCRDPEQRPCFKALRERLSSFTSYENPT
Sequence of ZAP70 (human) (P43403 whole entry, looked up): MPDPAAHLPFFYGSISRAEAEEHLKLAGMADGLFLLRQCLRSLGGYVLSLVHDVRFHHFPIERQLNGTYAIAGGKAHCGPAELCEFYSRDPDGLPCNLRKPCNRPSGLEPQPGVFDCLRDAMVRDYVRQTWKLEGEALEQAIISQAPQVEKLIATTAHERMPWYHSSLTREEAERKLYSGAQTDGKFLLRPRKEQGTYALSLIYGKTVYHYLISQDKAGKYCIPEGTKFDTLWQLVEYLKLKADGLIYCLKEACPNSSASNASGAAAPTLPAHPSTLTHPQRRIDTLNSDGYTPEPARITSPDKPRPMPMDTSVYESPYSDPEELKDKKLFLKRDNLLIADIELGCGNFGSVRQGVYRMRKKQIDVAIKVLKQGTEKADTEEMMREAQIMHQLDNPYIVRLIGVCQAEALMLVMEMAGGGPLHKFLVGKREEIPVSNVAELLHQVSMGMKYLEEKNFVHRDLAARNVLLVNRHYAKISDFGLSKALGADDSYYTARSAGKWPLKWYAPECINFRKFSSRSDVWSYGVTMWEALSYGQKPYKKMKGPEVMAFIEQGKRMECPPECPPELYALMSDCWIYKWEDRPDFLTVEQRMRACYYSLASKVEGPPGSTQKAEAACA
Sequence of TLK1 (human) (Q9UKI8 whole entry, looked up): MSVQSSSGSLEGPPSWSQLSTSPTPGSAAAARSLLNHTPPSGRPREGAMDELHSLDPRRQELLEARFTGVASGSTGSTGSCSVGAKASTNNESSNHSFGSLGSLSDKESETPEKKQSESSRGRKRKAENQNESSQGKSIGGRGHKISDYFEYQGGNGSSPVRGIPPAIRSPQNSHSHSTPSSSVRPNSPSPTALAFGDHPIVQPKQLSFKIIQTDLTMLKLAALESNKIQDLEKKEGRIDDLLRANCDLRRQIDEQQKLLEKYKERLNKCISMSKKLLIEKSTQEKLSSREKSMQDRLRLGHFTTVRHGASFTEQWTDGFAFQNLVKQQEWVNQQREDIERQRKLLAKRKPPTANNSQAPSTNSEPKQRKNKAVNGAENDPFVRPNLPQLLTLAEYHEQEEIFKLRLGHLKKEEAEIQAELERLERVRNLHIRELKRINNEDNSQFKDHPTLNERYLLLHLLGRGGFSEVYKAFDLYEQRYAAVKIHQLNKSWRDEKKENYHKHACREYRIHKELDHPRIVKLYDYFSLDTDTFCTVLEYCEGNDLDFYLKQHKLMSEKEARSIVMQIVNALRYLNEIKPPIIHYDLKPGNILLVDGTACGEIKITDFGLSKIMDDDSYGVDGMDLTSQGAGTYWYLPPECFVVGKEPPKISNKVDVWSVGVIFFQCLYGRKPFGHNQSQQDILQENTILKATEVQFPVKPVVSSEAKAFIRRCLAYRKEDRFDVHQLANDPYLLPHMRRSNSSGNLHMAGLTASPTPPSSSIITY

SMILES: O=C(Nc1nc2cc(C(F)(F)F)cc(NC3CC3)n2n1)c1cccnc1
residual activity ([1]; compound 0.01 µM): 95%
residual activity ([1]; compound 1.0 µM): 97%
residual activity ([2]; compound 0.01 µM): 109%
residual activity ([2]; compound 0.1 µM): 117%
residual activity ([2]; compound 1.0 µM): 104%
residual activity ([3]; compound 0.01 µM): 94%
residual activity ([3]; compound 0.1 µM): 100%
residual activity ([3]; compound 1.0 µM): 89%
residual activity ([4]; compound 0.01 µM): 106%
residual activity ([4]; compound 0.1 µM): 121%
residual activity ([4]; compound 1.0 µM): 107%
residual activity ([5]; compound 0.01 µM): 83%
residual activity ([5]; compound 0.1 µM): 114%
residual activity ([5]; compound 1.0 µM): 92%
residual activity ([6]; compound 0.01 µM): 100%
residual activity ([6]; compound 0.1 µM): 88%
residual activity ([6]; compound 1.0 µM): 93%
residual activity ([7]; compound 0.01 µM): 101%
residual activity ([7]; compound 0.1 µM): 115%
residual activity ([7]; compound 1.0 µM): 106%
residual activity ([8]; compound 0.01 µM): 114%
residual activity ([8]; compound 0.1 µM): 130%
residual activity ([8]; compound 1.0 µM): 124%
residual activity ([13]; compound 0.01 µM): 82%
residual activity ([13]; compound 0.1 µM): 96%
residual activity ([13]; compound 1.0 µM): 83%
residual activity ([9]; compound 0.01 µM): 97%
residual activity ([9]; compound 0.1 µM): 106%
residual activity ([9]; compound 1.0 µM): 88%
residual activity ([10]; compound 0.01 µM): 94%
residual activity ([10]; compound 0.1 µM): 103%
residual activity ([10]; compound 1.0 µM): 69%
residual activity ([11]; compound 0.01 µM): 107%
residual activity ([11]; compound 0.1 µM): 99%
residual activity ([11]; compound 1.0 µM): 90%
residual activity ([12]; compound 0.01 µM): 76%
residual activity ([12]; compound 0.1 µM): 77%
residual activity ([12]; compound 1.0 µM): 84%

SMILES: O=C(NCCCNc1nc(Nc2cccc(CN3CCOCC3)c2)ncc1C1CC1)C1CCC1
residual activity ([2]; compound 0.1 µM): 92%
residual activity ([2]; compound 1.0 µM): 86%
residual activity ([3]; compound 0.1 µM): 96%
residual activity ([3]; compound 1.0 µM): 79%
residual activity ([4]; compound 0.1 µM): 103%
residual activity ([4]; compound 1.0 µM): 114%
residual activity ([5]; compound 0.1 µM): 83%
residual activity ([5]; compound 1.0 µM): 94%
residual activity ([6]; compound 0.1 µM): 87%
residual activity ([6]; compound 1.0 µM): 84%
residual activity ([7]; compound 0.1 µM): 88%
residual activity ([7]; compound 1.0 µM): 98%
residual activity ([8]; compound 0.1 µM): 96%
residual activity ([8]; compound 1.0 µM): 110%
residual activity ([13]; compound 1.0 µM): 104%
residual activity ([9]; compound 0.1 µM): 80%
residual activity ([9]; compound 1.0 µM): 52%
residual activity ([10]; compound 0.1 µM): 95%
residual activity ([10]; compound 1.0 µM): 81%
residual activity ([11]; compound 0.1 µM): 90%
residual activity ([11]; compound 1.0 µM): 108%
residual activity ([12]; compound 0.1 µM): 92%
residual activity ([12]; compound 1.0 µM): 94%

Results, then the molecule that gave them:

residual activity ([1]; compound 10.0 µM): 107%
residual activity ([2]; compound 10.0 µM): 83%
residual activity ([3]; compound 10.0 µM): 84%
residual activity ([4]; compound 10.0 µM): 113%
residual activity ([5]; compound 10.0 µM): 115%
residual activity ([6]; compound 10.0 µM): 133%
residual activity ([7]; compound 10.0 µM): 99%
residual activity ([8]; compound 10.0 µM): 79%
residual activity ([9]; compound 10.0 µM): 119%
residual activity ([10]; compound 10.0 µM): 128%
residual activity ([11]; compound 10.0 µM): 108%
residual activity ([12]; compound 10.0 µM): 95%
SMILES: CCOC(=O)c1ccc(N2NC(=O)/C(=C/c3ccc([N+](=O)[O-])o3)C2=O)cc1

residual activity ([1]; compound 1.0 µM): 101%
residual activity ([1]; compound 10.0 µM): 107%
residual activity ([3]; compound 1.0 µM): 81%
residual activity ([3]; compound 10.0 µM): 79%
residual activity ([5]; compound 10.0 µM): 87%
residual activity ([6]; compound 10.0 µM): 103%
residual activity ([7]; compound 1.0 µM): 110%
residual activity ([7]; compound 10.0 µM): 100%
residual activity ([8]; compound 1.0 µM): 126%
residual activity ([8]; compound 10.0 µM): 110%
residual activity ([13]; compound 1.0 µM): 87%
residual activity ([13]; compound 10.0 µM): 86%
residual activity ([9]; compound 1.0 µM): 92%
residual activity ([9]; compound 10.0 µM): 90%
residual activity ([10]; compound 1.0 µM): 106%
residual activity ([10]; compound 10.0 µM): 87%
residual activity ([11]; compound 1.0 µM): 95%
residual activity ([11]; compound 10.0 µM): 100%
residual activity ([12]; compound 1.0 µM): 77%
residual activity ([12]; compound 10.0 µM): 98%
SMILES: O=C(NOCC(O)CO)c1ccc(F)c(F)c1Nc1ccc(I)cc1Cl (stereo not given)

residual activity ([1]; compound 1.0 µM): 103%
residual activity ([1]; compound 10.0 µM): 98%
residual activity ([2]; compound 1.0 µM): 96%
residual activity ([2]; compound 10.0 µM): 105%
residual activity ([3]; compound 1.0 µM): 84%
residual activity ([3]; compound 10.0 µM): 89%
residual activity ([5]; compound 1.0 µM): 95%
residual activity ([5]; compound 10.0 µM): 93%
residual activity ([6]; compound 1.0 µM): 95%
residual activity ([6]; compound 10.0 µM): 105%
residual activity ([7]; compound 1.0 µM): 91%
residual activity ([7]; compound 10.0 µM): 99%
residual activity ([8]; compound 1.0 µM): 115%
residual activity ([8]; compound 10.0 µM): 121%
residual activity ([13]; compound 1.0 µM): 85%
residual activity ([13]; compound 10.0 µM): 101%
residual activity ([9]; compound 10.0 µM): 107%
residual activity ([10]; compound 10.0 µM): 96%
residual activity ([11]; compound 1.0 µM): 96%
residual activity ([11]; compound 10.0 µM): 104%
residual activity ([12]; compound 1.0 µM): 84%
residual activity ([12]; compound 10.0 µM): 100%
SMILES: O=C(NOC[C@H](O)CO)c1ccc(F)c(F)c1Nc1ccc(I)cc1Cl
